Tested on: VE-cadherin and Claudin-5 in pHUVECs
Assay: Immunofluorescence of VE-cadherin and Claudin-5 junctional staining in pHUVECs treated with COVID-19 patient plasma
Type: cell-based, human
Conditions: co-treatment with moderate or severe COVID-19 plasma, six hours

Substance: Nangibotide
- disruption of the EC barrier, as examined through junctional protein expression (VE-cadherin, Claudin-5): could maintain junctional protein expression
